Target: Cyclin-dependent kinase 2 (Homo sapiens) (UniProt P24941)

Row | Structure (SMILES) | cKi [nM]
1 | O=C(Nc1n[nH]c2nnc(-c3cccc(F)c3F)cc12)C1CCCC1 | 5
2 | O=C(Nc1n[nH]c2nnc(-c3cccnc3)cc12)C1CC1 | 5
3 | CCN1CCC(C(=O)Nc2n[nH]c3nnc(-c4cccc(F)c4F)cc23)CC1 | 450
4 | CN(C)CCCC(=O)Nc1n[nH]c2nnc(-c3ccccc3)cc12 | 1700
5 | CCN1CCC(CC(=O)Nc2n[nH]c3nnc(-c4cccc(F)c4F)cc23)CC1 | 540

Reference: ChEMBL document CHEMBL1136434, “5-aryl-pyrazolo[3,4-b]pyridazines: potent inhibitors of glycogen synthase kinase-3 (GSK-3)” (Bioorg Med Chem Lett, 2003)
